Experimental data reported in ChEMBL document CHEMBL1201862, “PubChem BioAssay data set” (2004).
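All cell lines were grown in 96-well plates and treated with compound for 48 hours. GI50: concentration for 50% inhibition of growth.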 Calls of active or inactive are those of the source. Cut-off read from the data, not from the text of the source: active = GI50 up to about 1.1 µM and inactive = higher.

Assays:
Test in all cases: NCI anticancer screen, dose series, 48 h
[1] = test system: NCI/ADR-RES
[2] = test system: TK-10
[3] = test system: UACC-257
[4] = test system: NCI-H460
[5] = test system: SK-MEL-28
[6] = test system: A498
[7] = test system: HCT-116
[8] = test system: DU-145
[9] = test system: OVCAR-3
[10] = test system: ACHN
[11] = test system: NCI-H23
[12] = test system: MDA-MB-231
[13] = test system: LOX IMVI
[14] = test system: MCF7
[15] = test system: SW-620
[16] = test system: CCRF-CEM
[17] = test system: PC-3
[18] = test system: HT-29
[19] = test system: OVCAR-8
[20] = test system: MOLT-4

| SMILES | GI50 [1] | GI50 [2] | GI50 [3] | GI50 [4] | GI50 [5] | GI50 [6] | GI50 [7] | GI50 [8] | GI50 [9] | GI50 [10] | GI50 [11] | GI50 [12] | GI50 [13] | GI50 [14] | GI50 [15] | GI50 [16] | GI50 [17] | GI50 [18] | GI50 [19] | GI50 [20] |
| --- | --- | --- | --- | --- | --- | --- | --- | --- | --- | --- | --- | --- | --- | --- | --- | --- | --- | --- | --- | --- |
| CSc1nc(SC)c2ncn(C3CC(Oc4ccc(C)cc4)C(COc4ccc(C)cc4)O3)c2n1 (stereo not given) | > 100 µM (inactive) | > 100 µM (inactive) | > 100 µM (inactive) | > 100 µM (inactive) | > 100 µM (inactive) | > 100 µM (inactive) | > 100 µM (inactive) | > 100 µM (inactive) | > 100 µM (inactive) | > 100 µM (inactive) | > 100 µM (inactive) | > 100 µM (inactive) | > 100 µM (inactive) | > 100 µM (inactive) | > 100 µM (inactive) | > 100 µM (inactive) | > 100 µM (inactive) | > 100 µM (inactive) | > 100 µM (inactive) | – |
| CCOC(=O)C1=NN(c2ccc(C)cc2)C2(c3ccccc3)C=C(c3ccccc3)N(C)CCN12 (stereo not given) | > 100 µM (inactive) | > 100 µM (inactive) | 62.4 µM (inactive) | – | > 100 µM (inactive) | > 100 µM (inactive) | > 100 µM (inactive) | > 100 µM (inactive) | > 100 µM (inactive) | > 100 µM (inactive) | > 100 µM (inactive) | > 100 µM (inactive) | > 100 µM (inactive) | > 100 µM (inactive) | > 100 µM (inactive) | > 100 µM (inactive) | > 100 µM (inactive) | > 100 µM (inactive) | > 100 µM (inactive) | > 100 µM (inactive) |
| O=C(O)CN1C(=O)c2ccc(NC(=O)C(=O)O)cc2S1(=O)=O | > 100 µM (inactive) | > 100 µM (inactive) | > 100 µM (inactive) | > 100 µM (inactive) | > 100 µM (inactive) | > 100 µM (inactive) | > 100 µM (inactive) | > 100 µM (inactive) | – | > 100 µM (inactive) | > 100 µM (inactive) | > 100 µM (inactive) | > 100 µM (inactive) | > 100 µM (inactive) | > 100 µM (inactive) | > 100 µM (inactive) | > 100 µM (inactive) | – | – | > 100 µM (inactive) |
| Cc1cc(O)c2c3c(ccc2c1)C(=O)c1c(O)cccc1C3=O [TETRANGULOL] | 5.97 µM (inactive) | 54.5 µM (inactive) | 2.28 µM (inactive) | 0.653 µM (active) | > 100 µM (inactive) | > 100 µM (inactive) | 11.2 µM (inactive) | 4.56 µM (inactive) | 0.397 µM (active) | 17.7 µM (inactive) | 3.98 µM (inactive) | 17.5 µM (inactive) | 5.57 µM (inactive) | 3.3 µM (inactive) | – | 30.1 µM (inactive) | 16.1 µM (inactive) | 8.15 µM (inactive) | 9.68 µM (inactive) | 5.48 µM (inactive) |
| O=C(O)CN1CCN2CCOCCOCCN(CC1)CCN(CC(=O)O)CC2 | > 100 µM (inactive) | > 100 µM (inactive) | > 100 µM (inactive) | > 100 µM (inactive) | > 100 µM (inactive) | > 100 µM (inactive) | > 100 µM (inactive) | > 100 µM (inactive) | > 100 µM (inactive) | > 100 µM (inactive) | – | > 100 µM (inactive) | > 100 µM (inactive) | > 100 µM (inactive) | > 100 µM (inactive) | > 100 µM (inactive) | > 100 µM (inactive) | > 100 µM (inactive) | > 100 µM (inactive) | – |
| CCc1c(O)nc(Nc2nc3ccccc3[nH]2)[nH]c1=O | > 100 µM (inactive) | > 100 µM (inactive) | > 100 µM (inactive) | > 100 µM (inactive) | > 100 µM (inactive) | > 100 µM (inactive) | > 100 µM (inactive) | > 100 µM (inactive) | > 100 µM (inactive) | > 100 µM (inactive) | > 100 µM (inactive) | > 100 µM (inactive) | > 100 µM (inactive) | > 100 µM (inactive) | > 100 µM (inactive) | > 100 µM (inactive) | > 100 µM (inactive) | > 100 µM (inactive) | > 100 µM (inactive) | – |
| Nc1nc(NNc2ccccc2F)cc(=O)[nH]1 | > 100 µM (inactive) | > 100 µM (inactive) | > 100 µM (inactive) | > 100 µM (inactive) | > 100 µM (inactive) | > 100 µM (inactive) | > 100 µM (inactive) | > 100 µM (inactive) | > 100 µM (inactive) | > 100 µM (inactive) | – | > 100 µM (inactive) | 42 µM (inactive) | > 100 µM (inactive) | > 100 µM (inactive) | 78.5 µM (inactive) | > 100 µM (inactive) | > 100 µM (inactive) | > 100 µM (inactive) | > 100 µM (inactive) |
